The record followed here is patent US7320972B2, “4-Biarylyl-1-phenylazetidin-2-ones” (Microbia, Inc., priority 2003, dated 2008).

As usually defined, the % inhibition is the change of the read-out against control, counted positive when it falls. A lower % inhibition goes with a weak effect. One may read the melting point as the temperature, or range, at which the solid turns liquid. In general, inhibition in vivo refers to the percentage by which the read-out fell short of the control. Read a high inhibition in vivo as strong suppression.

Data set [1] concerns cholesterol absorption (serum 3H-cholesterol). The data set can be described thus: In Vivo Assay of Hypolipidemic Agents using the Rat Cholesterol Absorption Model. Details: species or system Sprague-Dawley rats. The following applies: peroral; for % inhibition at 10 mg/kg: 10 mg/kg (footnote 1); for inhibition in vivo at 1 mg/kg: po. In outline: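 Female Sprague-Dawley rats (150–250 g, 4–6 per group) were fasted overnight and dosed orally with compound in olive oil or vehicle. Thirty minutes later they received 3–5 μCi 3H-cholesterol orally in olive oil, and serum radioactivity was measured at 3 h. % inhibition = 100×(1−Ctest/Cctrl) at a fixed dose; ED50 is the dose giving half-maximal effect.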

[2] abbreviates: serum 3H-cholesterol vs vehicle control.
Setting [3] is: 1 mg/kg, serum 3H-cholesterol 3 h after cholesterol dose, vs vehicle control.

Regarding `O=C1[C@H](CC[C@H](O)c2ccc(F)cc2)[C@@H](c2ccc(-c3ccc(O)cc3)cc2)N1c1ccc(F)cc1` [Example 2, (3R,4S)-1-(4-fluorophenyl)-3-[(3S)-3-(4-fluorophenyl)-3-hydroxypropyl]-4-(4′-hydroxybiphenyl-4-yl)azetidin-2-one], the melting point worked out at 110 °C. Also, the “% inhibition at 10 mg/kg” value in data set [1] (setting [2]) is given as 54^1%.

The molecule `O=C1[C@H](CC[C@H](O)c2ccc(F)cc2)[C@@H](c2ccc(-c3cccc(O)c3)cc2)N1c1ccc(F)cc1` [Example 4, (3R,4S)-1-(4-Fluorophenyl)-3-[(3S)-3-(4-fluorophenyl)-3-hydroxypropyl]-4-(3′-hydroxybiphenyl-4-yl)azetidin-2-one] registered a melting point of 107 °C. At 1 mg/kg the inhibition in vivo in data set [1] (setting [3]) was 72%.

On to `COc1ccc(-c2ccc([C@@H]3[C@@H](CC[C@H](O)c4ccc(F)cc4)C(=O)N3c3ccc(F)cc3)cc2)cc1` [Example 5, (3R,4S)-1-(4-fluorophenyl)-3-[(3S)-3-(4-fluorophenyl)-3-hydroxypropyl]-4-(4′-methoxybiphenyl-4-yl)azetidin-2-one], for which the melting point amounted to 103 °C. In addition, the “% inhibition at 10 mg/kg” value in data set [1] (setting [2]) is reported as 26^1%.

For the molecule `O=C1[C@H](CC[C@H](O)c2ccc(F)cc2)[C@@H](c2ccc(O)c(-c3ccccc3)c2)N1c1ccc(F)cc1` [Example 6, (3R,4S)-1-(4-fluorophenyl)-3-[(3S)-3-(4-fluorophenyl)-3-hydroxypropyl]-4-(6-hydroxybiphenyl-3-yl)azetidin-2-one], the melting point was found to be 113 °C.

`O=C1[C@H](CC[C@H](O)c2ccc(F)cc2)[C@@H](c2ccc(-c3ccccc3O)cc2)N1c1ccc(F)cc1` [Example 7, (3R,4S)-1-(4-fluorophenyl)-3-[(3S)-3-(4-fluorophenyl)-3-hydroxypropyl]-4-(2′-hydroxybiphenyl-4-yl)azetidin-2-one] came in with a melting point of 101 °C. For the same molecule, the inhibition in vivo at 1 mg/kg in data set [1] (setting [3]) was 30%.

With `CS(=O)(=O)c1ccc(-c2ccc([C@@H]3[C@@H](CC[C@H](O)c4ccc(F)cc4)C(=O)N3c3ccc(F)cc3)cc2)cc1` [Example 8, (3R,4S)-1-(4-fluorophenyl)-3-[(3S)-3-(4-fluorophenyl)-3-hydroxypropyl]-4-[4′-(methylsulfonyl)biphenyl-4-yl]azetidin-2-one], the melting point was found to be 111 °C. This molecule also came in with an inhibition in vivo at 1 mg/kg in data set [1] (setting [3]) of 53%.

For the molecule `COc1cc(-c2ccc([C@@H]3[C@@H](CC[C@H](O)c4ccc(F)cc4)C(=O)N3c3ccc(F)cc3)cc2)cc(OC)c1OC` [Example 9, (3R,4S)-1-(4-fluorophenyl)-3-[(3S)-3-(4-fluorophenyl)-3-hydroxypropyl]-4-(3′,4′,5′-trimethoxybiphenyl-4-yl)azetidin-2-one], the melting point came out at 103 °C. Moreover, at 1 mg/kg the inhibition in vivo in data set [1] (setting [3]) was 40%.

`CS(=O)(=O)c1cccc(-c2ccc([C@@H]3[C@@H](CC[C@H](O)c4ccc(F)cc4)C(=O)N3c3ccc(F)cc3)cc2)c1` [Example 10, (3R,4S)-1-(4-fluorophenyl)-3-[(3S)-3-(4-fluorophenyl)-3-hydroxypropyl]-4-[3′-(methylsulfonyl)biphenyl-4-yl]azetidin-2-one] gave a melting point of 104 °C. Further, the “% inhibition at 3 mg/kg” value in data set [1] (3 mg/kg (footnote 2), serum 3H-cholesterol vs vehicle control) was 54^2%.

As for `COc1cccc(-c2ccc([C@@H]3[C@@H](CC[C@H](O)c4ccc(F)cc4)C(=O)N3c3ccc(F)cc3)cc2)c1OC` [Example 11, (3R,4S)-4-(2′,3′-dimethoxybiphenyl-4-yl)-1-(4-fluorophenyl)-3-[(3S)-3-(4-fluorophenyl)-3-hydroxypropyl]azetidin-2-one], the melting point was found to be 101 °C. This molecule yielded an inhibition in vivo at 1 mg/kg in data set [1] (setting [3]) of 28%.

In turn, `O=C1[C@H](CC[C@H](O)c2ccc(F)cc2)[C@@H](c2ccc(-c3cccc(S(=O)(=O)O)c3)cc2)N1c1ccc(F)cc1` [Example 118, 4′-{(2S,3R)-1-(4-fluorophenyl)-3-[(3S)-3-(4-fluorophenyl)-3-hydroxypropyl]-4-oxoazetidin-2-yl}biphenyl-3-sulfonic Acid] returned an inhibition in vivo at 1 mg/kg in data set [1] (setting [3]) of 61%.

With `O=C1[C@H](CC[C@H](O)c2ccc(F)cc2)[C@@H](c2ccc(-c3cccc(S)c3)cc2)N1c1ccc(F)cc1` [Example 119, (3R,4S)-1-(4-fluorophenyl)-3-[(3S)-3-(4-fluorophenyl)-3-hydroxypropyl]-4-(3′-mercaptobiphenyl-4-yl)azetidin-2-one], the inhibition in vivo at 1 mg/kg in data set [1] (setting [3]) came to 56%.

Regarding `C[N+](C)(C)c1cccc(-c2ccc([C@@H]3[C@@H](CC[C@H](O)c4ccc(F)cc4)C(=O)N3c3ccc(F)cc3)cc2)c1` [Example 120, 4′-{(2S,3R)-1-(4-fluorophenyl)-3-[(3S)-3-(4-fluorophenyl)-3-hydroxypropyl]-4-oxoazetidin-2-yl}-N,N,N-trimethylbiphenyl-3-aminium], in data set [1] (setting [3]), the “% inhibition at 1 mg/kg” value worked out at 23%.

In data set [1] (setting [3]), `O=C1[C@H](CC[C@H](O)c2ccc(F)cc2)[C@@H](c2ccc(-c3cccc(O)c3)cc2O)N1c1ccc(F)cc1` [Example 121, (3R,4S)-4-(3,3′-dihydroxybiphenyl-4-yl)-1-(4-fluorophenyl)-3-[(3S)-3-(4-fluorophenyl)-3-hydroxypropyl]azetidin-2-one] gave an inhibition in vivo at 1 mg/kg of 72%.

Regarding `O=C1[C@H](CC[C@H](O)c2ccc(F)cc2)[C@@H](c2ccc(-c3cccc(P(=O)(O)O)c3)cc2)N1c1ccccc1` [Example 122, (4′-{(2S,3R)-3-[(3S)-3-(4-fluorophenyl)-3-hydroxypropyl]-4-oxo-1-phenylazetidin-2-yl}biphenyl-3-yl)phosphonic Acid], in data set [1] (setting [3]), 1 mg/kg produced 67% inhibition in vivo.

The molecule `CS(=O)(=O)c1cccc(-c2ccc([C@@H]3[C@@H](CC[C@H](O)c4ccc(F)cc4)C(=O)N3c3ccccc3)c(O)c2)c1` [Example 123, (3R,4S)-3-[(3S)-3-(4-fluorophenyl)-3-hydroxypropyl]-4-[3-hydroxy-3′-(methylsulfonyl)biphenyl-4-yl]-1-phenylazetidin-2-one] had an inhibition in vivo at 1 mg/kg in data set [1] (setting [3]) of 72%.

In turn, `O=C1[C@H](CC[C@H](O)c2ccc(F)cc2)[C@@H](c2ccc(-c3cccc(O)c3)cc2)N1c1ccc(-c2ccccc2)cc1` [Example 124, (3R,4S)-1-biphenyl-4-yl-3-[(3S)-3-(4-fluorophenyl)-3-hydroxypropyl]-4-(3′-hydroxybiphenyl-4-yl)azetidin-2-one] yielded an inhibition in vivo at 1 mg/kg in data set [1] (setting [3]) of 48%.

`O=C1[C@H](CC[C@H](O)c2ccc(F)cc2)[C@@H](c2ccc(-c3ccc(O)cc3)cc2O)N1c1ccccc1` [Example 125, (3R,4S)-4-(3,4′-dihydroxybiphenyl-4-yl)-3-[(3S)-3-(4-fluorophenyl)-3-hydroxypropyl]-1-phenylazetidin-2-one] registered an inhibition in vivo at 1 mg/kg in data set [1] (setting [3]) of 64%.

In turn, `O=C1[C@H](CC[C@H](O)c2ccc(F)cc2)[C@@H](c2ccc(-c3ccc(P(=O)(O)O)cc3)cc2O)N1c1ccccc1` [Example 127, (4′-{(2S,3R)-3-[(3S)-3-(4-Fluorophenyl)-3-hydroxypropyl]-4-oxo-1-phenylazetidin-2-yl}-3′-hydroxybiphenyl-4-yl)phosphonic Acid] showed an inhibition in vivo at 1 mg/kg in data set [1] (setting [3]) of 58%.

As to `O=C1[C@H](CC[C@H](O)c2ccc(F)cc2)[C@@H](c2ccc(-c3ccc(S(=O)(=O)O)cc3)cc2O)N1c1ccccc1` [Example 128, Sodium 4′-{(2S,3R)-3-[(3S)-3-(4-fluorophenyl)-3-hydroxypropyl]-4-oxo-1-phenylazetidin-2-yl}-3′-hydroxybiphenyl-4-sulfonate], the inhibition in vivo at 1 mg/kg in data set [1] (setting [3]) was determined as 60%.
